In patent publication US7141553B2, “A3AR agonists for the treatment of inflammatory arthritis” (Can-Fite Biopharma Ltd. Israel, priority 2002, dated 2006):
Like-named read-outs stand apart in the source and are kept apart here.

Assays:
[1] = Human studies, plasma half life (data not shown); format: in vivo
[2] = Single dose study in healthy men, plasma pharmacokinetics; format: in vivo, human
Method: (§1) In the single dose study, 15 healthy men (3 groups of 5) received a single oral dose of IB-MECA (1, 5 or 10 mg) or placebo. In each group, 1 subject received placebo. In the repeated dose study, 28 healthy men (4 groups of 7) received repeated oral doses of IB-MECA (2, 3, 4 or 5 mg) or placebo every 12 h for 7 days. In each group, 2 subjects received placebo.
(§2) In the single dose study, a solution with IB-MECA powder in 30% Cremophor RH40 (BASF) was used. In the repeated dose study, an aqueous 0.5% methylcellulose suspension (Methocel A4M Premium, The Dow Chemical Company) was used. In both studies, the study medication was taken orally as a drink, followed by 50 ml of tap water.
(§3) The following procedures were done: • Safety assesment: laboratory assessments (routine biochemistry and urinalysis), physical examination, 12-lead ECG, ambulatory ECG, pulmonary function testing (FEV1), vital signs (semi-recumbent in the single dose study; semi-recumbent and standing in the repeat dose study). Adverse events were recorded throughout both studies. • Determination of IB-MECA blood level: in the single dose study blood samples for assay of IB-MECA were taken immediately before and at 0.25, 0.5, 1, 2, 4, 8, 12, 24, and 48 h after dosing; in the repeat dose study—blood samples were taken immediately before and at 0.25, 0.5, 1, 2, 4, 8, and 12 h after dosing on Day 1, before dosing on Days 2–6, and before and at 0.25, 0.5, 1, 2, 4, 8, 12, and 24 h after dosing on Day 7.
Plasma samples were assayed for IB-MECA using LC/MS/MS. The lower limit of quantification (LLOQ) was 0.1 ng/mL. Intra-assay coefficients of variation (CV) were <5.0% and inter-assay CVs were <9.4%.
Maximum concentration (Cmax) and time to maximum concentration (tmax) were observed values. Other pharmacokinetic parameters (half-life, t^1/2; AUC; and clearance, CL/F) were calculated by non-compartmental methods using WinNonlin® software (version 3.0, Pharsight, Mountain View, Calif., US). Accumulation indices of Cmax and AUC were calculated as ratio of values at steady state (Day 7) to the values on Day 1.

[3] = tested on: collagen-induced arthritis; conditions: 0.5 mg/kg a day; cited from earlier work
[4] = tested on: healthy men; assay: Single dose study in healthy men, safety and tolerability; format: in vivo, human; conditions: for maximal tolerated dose: once daily administration
Method: Two clinical studies were carried out: a single dose study and a repeat dose study. Both studies were parallel-group, double-blind, dose-rising, and placebo-controlled in design.
as §1
Healthy young men, aged 18–45 years.
as §2, §3
Data from all subjects who received IB-MECA were included in the analysis of safety and tolerability (adverse events and laboratory safety variables). Numerical data and parameters were summarised using means or medians, and other descriptive statistics, according to the type and distribution of the data.

[5] = Plasma half life in mice; format: in vivo, mouse
[6] = tested on: patients with active rheumatoid arthritis; assay: Clinical trial in humans, effect on rheumatoid arthritis; format: in vivo, human; conditions: 0.1, 1 or 4 mg twice daily orally, up to 12 weeks; in at least half of 15 patients
Source text: Patients with active rheumatoid arthritis were chosen for the study. All chosen patients met the following criteria:
Rheumatoid arthritis patients that were included in the study, met the following inclusion criteria: • 1. Males and females 18 years of age or older • 2. Functional Class I, II, or III by the criteria of the American College of Rheumatology • 3. Active RA, as indicated by the presence of (a) ≧6 swollen joints; AND (b) ≧29 tender joints; AND at least one of he following: (c) Westergren ESR of ≧28 mm/hour; OR (d) CRP level of >2.0 mg/dL; OR (e) morning stiffness for >45 minutes • 4. History of unsuccessful treatment (documented intolerance or lack of efficacy as determined by the Investigator) with at least 1, but no more than 4, of the following disease modifying anti-rheumatic drugs (DMARDs): methotrexate, hydroxychloroquine, sulfasalazine, oral or injectable gold, azathioprine, leflunomide, minocycline, and penicillamine, alone or in combination Protocol
Patients included in the study were subjected to a 1 month washout period in which they ceased to take any DMARD. Following this one months washout the patients were administered twice daily with either with 0.1 mg, 1 mg of 4 mg of IB-MECA in a double-blind fashion. […]
Disease activity was assessed using standard criteria as laid down by the American College of Rheumatology (ACR).

[7] = single doses 1-10 mg, independent of dose
[8] = single oral dose 1 mg, mean (SD)
[9] = single oral dose 5 mg, mean (SD)
[10] = single oral dose 10 mg, mean (SD)

Question: For `CNC(=O)[C@H]1O[C@@H](n2cnc3c(NCc4cccc(I)c4)ncnc32)[C@H](O)[C@@H]1O` [IB-MECA, N6-(3-iodobenzyl)-adenosine-5′-N-methyl-uronamide], which “half life in human plasma” value [1] is on record?
Answer: 8 to 10 h

Question: And the “plasma level (Cmax)” value ([2]; single daily dose of 5 mg and twice daily dose of 4 mg)?
Answer: < 80 ng/mL

Question: What about the Cmax ([2]; single daily dose of 5 mg and twice daily dose of 4 mg, read-out: plasma level (Cmax)) of the same compound?
Answer: < 160 nM

Question: What about the tmax ([2]; single doses 1-10 mg) of the same compound?
Answer: 1 to 2 h

Question: What about the “apparent plasma clearance (CL/F)” value [2, 7] of the same compound?
Answer: 4 to 7 L/h

Question: And the half-life [2, 7]?
Answer: about 8.5 h

Question: And the “AUC(0–48)” value [2, 8]?
Answer: 220.7 ng·h/mL

Question: And the “AUC(inf)” value [2, 8]?
Answer: 225.2 (21.7) ng · h/mL

Question: And the CL/F [2, 8]?
Answer: 4.5 (0.4) L/h

Question: And the t1/2 [2, 8]?
Answer: 8.7 (0.7) h

Question: And the Cmax ([2]; single oral dose 1 mg, mean (SD), n=4)?
Answer: 21.2 ng/mL

Question: What about the tmax ([2]; single oral dose 1 mg, median (range)) of the same compound?
Answer: 1 (1–2) h

Question: What about the “AUC(0–48)” value [2, 9] of the same compound?
Answer: 872.3 ng·h/mL

Question: What about the “AUC(inf)” value [2, 9] of the same compound?
Answer: 904.0 (221.9) ng · h/mL

Question: And the CL/F [2, 9]?
Answer: 5.8 (1.4) L/h

Question: And the t1/2 [2, 9]?
Answer: 8.3 (0.2) h

Question: And the Cmax ([2]; single oral dose 5 mg, mean (SD), n=4)?
Answer: 81.6 ng/mL

Question: And the tmax ([2]; single oral dose 5 mg, median (range))?
Answer: 1 (1–2) h

Question: And the “AUC(0–48)” value [2, 10]?
Answer: 1780.0 ng·h/mL

Question: What about the “AUC(inf)” value [2, 10] of the same compound?
Answer: 1813.0 (226.5) ng · h/mL

Question: And the CL/F [2, 10]?
Answer: 5.6 (0.7) L/h

Question: And the t1/2 [2, 10]?
Answer: 8.6 (0.4) h

Question: And the Cmax ([2]; single oral dose 10 mg, mean (SD), n=4)?
Answer: 178.0 ng/mL

Question: And the tmax ([2]; single oral dose 10 mg, median (range))?
Answer: 1 (1–2) h

Question: And the “severity of joint inflammation” value [3]?
Answer: reduced the severity of joint inflammation

Question: What about the “change in resting heart rate” value ([4]; after single 5 mg dose, four subjects) of the same compound?
Answer: small increase in resting heart rate

Question: What about the resting heart rate ([4]; after single 10 mg dose, 2 subjects, considered drug-related) of the same compound?
Answer: up to 115 beats/min

Question: What about the maximal tolerated dose [4] of the same compound?
Answer: about 5 mg

Question: What about the maximal tolerated dose ([4]; calculated on average human weight of 70 Kg) of the same compound?
Answer: about 70 micro ram/Kg

Question: What about the “adverse events within 12 h of dosing” value ([4]; single dose of 10 mg) of the same compound?
Answer: 8

Question: And the “adverse events within 12 h of dosing” value ([4]; single doses of up to 5 mg)?
Answer: no adverse events

Question: And the tolerability ([4]; single oral doses of up to 5 mg)?
Answer: safe and well tolerated

Question: And the half life [5]?
Answer: 1.5 h

Question: And the “disease symptoms (ACR criteria)” value [6]?
Answer: significant improvement in disease symptoms
